Assay results published in patent publication US7291641B2, “Derivatives of heterocycles with 5 members, their preparation and their use as medicaments” (Societe de Conseils de Recherches et d'Applications …, priority 1999, dated 2007).

Compound | melting point [°C]
CCCCOC(=O)NCCc1nc(-c2ccc(CC)cc2)c[nH]1 [Example 450, butyl 2-[4-(4-ethylphenyl)-1H-imidazol-2-yl]ethylcarbamate] | 92.4
CCCCOC(=O)NCCc1nc(-c2ccc(-c3ccc(C#N)cc3)cc2)c[nH]1 [Example 451, butyl 2-[4-(4′-cyano-1,1′-biphenyl-4-yl)-1H-imidazol-2-yl]ethylcarbamate] | 147
CCCCOC(=O)NCCc1nc(-c2ccc(-c3ccc(C(F)(F)F)cc3)cc2)c[nH]1 [Example 452, butyl 2-{4-[41-(trifluoromethyl)-1,1′-biphenyl-4-yl]-1H-imidazol-2-yl}ethylcarbamate] | 168.5
CCCCOC(=O)NCCc1nc(-c2ccc(-c3ccccc3)cc2)c(CC)[nH]1 [Example 453, butyl 2-[4-(1,1′-biphenyl-4-yl)-5-ethyl-1H-imidazol-2-yl]ethylcarbamate] | 127 to 128
CCCCOC(=O)NCCc1nc(-c2ccc(-c3ccccc3Cl)cc2)c[nH]1 [Example 454, butyl 2-[4-(2′-chloro-1,1′-biphenyl-4-yl)-1H-imidazol-2-yl]ethylcarbamate] | 99.7
CCCCOC(=O)NCCc1nc(-c2ccc(-c3cccc(F)c3F)cc2)c[nH]1 [Example 455, butyl 2-[4-(2′,3′-difluoro-1,1′-biphenyl-4-yl)-1H-imidazol-2-yl]ethylcarbamate] | 90

The next lines start with the values.

melting point [°C] | Compound
109.6 | CCCCOC(=O)NCCc1nc(-c2ccc(-c3ccccc3Br)cc2)c[nH]1 [Example 456, butyl 2-[4-(2′-bromo-1,1′-biphenyl-4-yl)-1H-imidazol-2-yl]ethylcarbamate]
111.1 | CCCCOC(=O)NCCc1nc(-c2ccc(-c3cc(F)cc(F)c3)cc2)c[nH]1 [Example 457, butyl 2-[4-(3′,5′-difluoro-1,1′-biphenyl-4-yl)-1H-imidazol-2-yl]ethylcarbamate]
116 to 121 | CCCCOC(=O)NCCc1nc(-c2ccc(-c3ccccc3OC)cc2)c[nH]1 [Example 458, butyl 2-[4-(2′-methoxy-1,1′-biphenyl-4-yl)-1H-imidazol-2-yl]ethylcarbamate]
100.5 to 101.5 | CCCCOC(=O)NCCc1nc(-c2ccc(-c3cccc([N+](=O)[O-])c3)cc2)c[nH]1 [Example 459, butyl 2-[4-(3′-nitro-1,1′-biphenyl-4-yl)-1H-imidazol-2-yl]ethylcarbamate]
109.5 | CCCCOC(=O)NCCc1nc(-c2ccc(-c3cc(F)ccc3F)cc2)c[nH]1 [Example 460, butyl 2-[4-(2′,5′-difluoro-1,1′-biphenyl-4-yl)-1H-imidazol-2-yl]ethylcarbamate]
112 to 113 | CCCCOC(=O)NCCc1nc(-c2ccc(-c3cccc(OC)c3)cc2)c[nH]1 [Example 461, butyl 2-[4-(3′-methoxy-1,1′-biphenyl-4-yl)-1H-imidazol-2-yl]ethylcarbamate]
